Data on 6 compounds can be found in EP3860956B1, “PROCESS FOR MANUFACTURING N-ALKYL-DIPHOSPHONATE AMINO AMINOACIDS” (Italmatch Chemicals S.p.A., priority 2018, dated 2020).

Like-named read-outs stand apart in the source and are kept apart here.

Data set [1] is described as follows: Barium sulphate scale inhibition. The note with it: minimum phosphonate concentration to inhibit 100% BaSO4 scale; 50/50 North Sea water/Formation water, pH 6, 22 hours at 90 °C, ICP-MS. The procedure: To evaluate the efficiency of both scale inhibitors according to the present invention and comparative ones in preventing barium scale inhibition in oil field scaling conditions, the present test is carried out determining the amount of BaSO4 that has precipitated after 22 hours at 90 °C, in a 50/50 mixture of synthetic North Sea water
The amount of soluble Ba ions is determined by inductively coupled plasma mass spectrometry (ICP-MS).
The present test is carried out as follows: • synthetic North Sea and Formation waters are prepared at pH 6. These water solutions are preheated at 90 °C before starting the test. An acetic acid/sodium acetate buffer is prepared and added to the North Sea water in order to give the required pH; • - 15, 30, 50, 70 and 100 ppm of scale inhibitor active phosphonic acid is added to a glass bottle; • - 50 ml of North Sea water is added to this glass bottle while stirring. 50 ml of Formation water is then added to this glass bottle; • - one blank solution is prepared, by mixing 50 ml of North Sea water with 50 ml of Formation water; • - sample bottles were put in an oven for 22 hours at 90 °C; • - after 22 hours, 3 ml of each test solution was taken from the surface, was filtered through a 0.45 µm Millipore filter and added to a stabilizing solution.
The stabilized samples were analyzed by ICP-MS for Ba.
Ba scale inhibition stands for the minimum phosphonate concentration to inhibit 100% BaSO4 scale.
Note that the 100% phosphonate efficiencies for BaSO4 scale inhibition are calculated as follows: % Scale inhibition = (V1−V0/V2−V0) × 100 [formula] wherein V0 = ppm Ba found in the blank solution; V1 = ppm Ba found in the solution with the scale inhibitor; and V2 = ppm Ba present in the Formation water.

For data set [2] the following is noted: after 28 days; 2.0 ppm of pure active solid or 5.5 ppm as commercial product; previous study; cited from earlier work.
Data set [3] in a line: Thermal stability test in synthetic North Sea water. The format is physicochemical. The note with it: 1% active acid in synthetic North Sea water, pH 5.5, 140 °C, one week, 31P NMR; percentage by weight. The procedure:
The test is carried out as follows: an aqueous solution containing 20% of scale inhibitor active acid at pH 5.5 (solution 1) is prepared. After that, synthetic North Sea water having a pH of 5.5 (solution 2) is prepared. A 1% scale inhibitor active acid sample is prepared by mixing 1 g of solution 1 with 19 g of solution 2. The so prepared sample is placed in a closed pressure resistant tube and kept in an oven at minimum 140 °C for one week. Finally, after one week, the sample is analyzed by means of 31P NMR spectroscopy.

Data set [4] in a line: Calcium carbonate scale inhibition. The conditions noted are these: 2 ppm active phosphonic acid; 240 ppm Ca2+, 732 ppm HCO3-, pH 8.7 buffer, 50 °C, 22 hours. The procedure:
To evaluate the efficiency of both scale inhibitors according to the present invention and comparative ones in preventing calcium carbonate scale in industrial water treatment conditions, the present test is carried out determining the amount of CaCO3 that has precipitated after 22 hours at 50 °C in a 50/50 mixture of cationic and anionic waters with the test phosphonates at three different concentrations. The amount of soluble Ca ions is analyzed by titration. […]
Put the sample bottles in an oven for 22 hours at 50 °C. […] The phosphonate efficiency as CaCO3 scale inhibition is then calculated using the equation: % CaCO3 inhibition = (Cat−Cab) × 100)÷(Cai−Cab) [formula] wherein Cat = calcium remaining in solution of the t sample, where the dilution with HCl has been corrected (Cat=(Caf)×Wta/Wtsam); Cab = Calcium remaining in the blank (i.e. glass bottle wherein no phosphonate was added; under these condition corresponds to minimum of 80% of calcium precipitated as CacO3); and Cai = Total calcium present in a reference t sample (i.e. a sample t in which the hardness brine has simply been diluted with water to get the same final volume).

Data set [5] can be described thus: Biodegradability, OECD 306 closed bottle marine test. The conditions noted are these: after 14 days; 2 ppm of pure active solid.
Procedure: Biodegradation tests are performed using the standard "closed bottle" marine test methods in accordance with OECD Guidelines 306. OECD306 is a test that measure biodegradation indirectly through the determination of the amount of dissolved oxygen in the medium. The measurement obtained are used to estimate the biodegradability (BOD) during the process.
The measured value of the BOD need to be corrected by dividing either with an experimental value of COD or a ThOD and multiply by 100% to get the biodegradability value.
OECD306 closed bottle test for was performed with a similar test set-up.
A short description of data set [6]: Brine and sea water compatibility test (Ca tolerance). The format is physicochemical. The note with it: synthetic North Sea water pH 5.5, 90 °C, 24 hours. The procedure:
Scale inhibitors, especially if they have anionic moieties, may form complexes and precipitate with hardness salts, for example calcium, before they can fulfill their dispersing and chelating functions. Compatibility tests are carried out to check if complexation happens or not. If compatibility is poor, not only precipitation occurs, but also overall scale formation becomes faster.

For `O=C(O)CCCCCN(CP(=O)(O)O)CP(=O)(O)O`, the “100% Ba scale inhibition” value in data set [1] is “(no inhibition on Ba)”. In addition, the Biodegradability in data set [2] is 77.15%.
In the case of `O=P(O)(O)CN(CP(=O)(O)O)CP(=O)(O)O` [ATMP, aminotris(methylenephosphonic acid)], in data set [3], the “Decomposition (%)” value is 12.5%.
For `O=C(O)CCCCCNC(P(=O)(O)O)P(=O)(O)O` [Compound of Formula II, 6-((diphosphonomethyl)amino)hexanoic acid], the “% CaCO3 inhibition” value in data set [4] is listed as 94% @ 2 ppm. The same compound returned a Biodegradability in data set [5] of 31.5%. The “100% Ba scale inhibition” value in data set [1] was 50 ppm. Besides, in data set [3], the “Decomposition (%)” value is reported as 3.0%. For the same compound, the “Ca Tolerance , visual observation” value in data set [6] (100 ppm active acid) is listed as “clear”; in data set [6] (1000 ppm active acid) it was “turbid”; in data set [6] (10000 ppm active acid), “turbid”; in data set [6] (50000 ppm active acid), “clear”.
As for `O=P(O)(O)CN(CCN(CP(=O)(O)O)CP(=O)(O)O)CCN(CP(=O)(O)O)CP(=O)(O)O` [DTMPA, [[(phosphonomethyl)imino]bis [2,1-ethanediylnitrilobis (methylene)]] tetrakis-phosphonic acid], the “100% Ba scale inhibition” value in data set [1] is recorded as 15 ppm. The “Decomposition (%)” value in data set [3] was 23.6%. Moreover, the “Ca Tolerance , visual observation” value in data set [6] (100 ppm active acid) is “clear”; in data set [6] (1000 ppm active acid) it was “turbid”; in data set [6] (10000 ppm active acid), “turbid”; in data set [6] (50000 ppm active acid) it was “clear”.
For the compound `CC(O)(P(=O)(O)O)P(=O)(O)O` [HEDP, 1-hydroxy ethylidene-1,1-diphosphonic acid], the “100% Ba scale inhibition” value in data set [1] is reported as 30ppm. For the same compound, in data set [3], the “Decomposition (%)” value was 2.3%. For the same compound, the “Ca Tolerance , visual observation” value in data set [6] (100 ppm active acid) was “clear”; in data set [6] (1000 ppm active acid), “turbid”; in data set [6] (10000 ppm active acid) it was “turbid”; in data set [6] (50000 ppm active acid), “clear”.
For `O=P(O)(O)CN(CCO)CP(=O)(O)O` [HEMPA, hydroxyethylamino-di(methylene phosphoric acid)], the “Decomposition (%)” value in data set [3] was 19.0%.
